Reference: the NIST ThermoML archive (doi:10.1016/j.jct.2016.09.041)
± gives the expanded uncertainty stated by the source.

Assay: molar heat capacity at constant pressure
Conditions: 101.33 kPa, Crystal 1, Small (less than 1 g) adiabatic calorimetry

N[C@@H](Cc1c[nH]c2ccccc12)C(=O)O [L-tryptophan]
Conditions	molar heat capacity at constant pressure [J/K/mol]
124.29 K	103.18 ± 0.58
125.09 K	103.85 ± 0.58
125.89 K	104.51 ± 0.58
126.7 K	105.01 ± 0.58
127.5 K	105.51 ± 0.58
128.3 K	106.18 ± 0.58
129.1 K	106.67 ± 0.58
129.91 K	107.26 ± 0.58
130 K	107.26 ± 0.67
130.71 K	107.84 ± 0.58
131.51 K	108.34 ± 0.67
132.31 K	108.75 ± 0.67
133.12 K	109.25 ± 0.67
133.92 K	109.67 ± 0.67
134.72 K	110.5 ± 0.67
135.52 K	111.08 ± 0.67
136.33 K	111.66 ± 0.67
137.13 K	112.16 ± 0.67
137.93 K	112.74 ± 0.67
138.74 K	113.33 ± 0.67
139.54 K	113.83 ± 0.67
140 K	114.16 ± 0.67
140.34 K	114.32 ± 0.67
141.14 K	114.74 ± 0.67
141.95 K	115.49 ± 0.67
142.75 K	116.07 ± 0.67
143.55 K	116.57 ± 0.67
144.35 K	117.23 ± 0.67
145.16 K	117.65 ± 0.67
145.96 K	118.31 ± 0.67
146.76 K	118.73 ± 0.67
147.56 K	119.31 ± 0.67
148.37 K	119.81 ± 0.67
149.17 K	120.64 ± 0.67
149.97 K	121.14 ± 0.67
150 K	121.06 ± 0.67
150.77 K	121.56 ± 0.67
151.57 K	122.22 ± 0.67
152.38 K	122.97 ± 0.67
153.18 K	123.22 ± 0.67
153.98 K	123.64 ± 0.67
154.78 K	124.55 ± 0.67
155.58 K	124.8 ± 0.67
156.38 K	125.55 ± 0.75
157.18 K	126.13 ± 0.75
157.98 K	126.46 ± 0.75
158.79 K	127.46 ± 0.75
159.59 K	127.96 ± 0.75
160 K	128.04 ± 0.75
160.39 K	128.13 ± 0.75
161.19 K	128.96 ± 0.75
161.99 K	129.62 ± 0.75
162.79 K	130.2 ± 0.75
163.59 K	130.79 ± 0.75
164.39 K	131.29 ± 0.75
165.19 K	131.7 ± 0.75
166 K	131.95 ± 0.75
166.8 K	132.7 ± 0.75
167.6 K	133.45 ± 0.75
168.39 K	134.03 ± 0.75
169.19 K	134.61 ± 0.75
169.99 K	135.19 ± 0.75
170 K	135.03 ± 0.75
170.79 K	135.61 ± 0.75
171.59 K	136.19 ± 0.75
172.39 K	136.52 ± 0.75
173.19 K	137.11 ± 0.75
173.99 K	137.6 ± 0.75
174.79 K	138.1 ± 0.75
175.59 K	138.77 ± 0.75
176.39 K	139.18 ± 0.75
177.19 K	140.1 ± 0.75
177.99 K	140.51 ± 0.75
178.79 K	141.01 ± 0.75
179.59 K	141.6 ± 0.75
180 K	141.93 ± 0.75
180.38 K	142.09 ± 0.75
181.18 K	142.68 ± 0.83
181.97 K	143.34 ± 0.83
182.76 K	143.84 ± 0.83
183.57 K	144.59 ± 0.83
184.36 K	144.92 ± 0.83
185.16 K	145.59 ± 0.83
185.96 K	146.17 ± 0.83
186.75 K	146.67 ± 0.83
187.55 K	147.25 ± 0.83
188.34 K	147.67 ± 0.83
189.14 K	148.5 ± 0.83
189.93 K	149.16 ± 0.83
190 K	148.91 ± 0.83
190.73 K	149.58 ± 0.83
191.53 K	149.91 ± 0.83
192.32 K	150.49 ± 0.83
193.12 K	151.07 ± 0.83
193.9 K	151.91 ± 0.83
194.7 K	152.4 ± 0.83
195.49 K	152.82 ± 0.83
196.29 K	153.24 ± 0.83
197.08 K	153.82 ± 0.83
197.87 K	154.4 ± 0.83
198.67 K	155.23 ± 0.83
199.46 K	155.65 ± 0.83
200 K	156.06 ± 0.91
200.26 K	156.31 ± 0.83
201.25 K	156.89 ± 0.83
202.45 K	157.81 ± 0.83
203.66 K	158.64 ± 0.83
204.86 K	159.55 ± 0.83
206.06 K	160.3 ± 0.91
207.27 K	161.3 ± 0.91
208.48 K	162.22 ± 0.91
209.68 K	162.96 ± 0.91
210 K	163.21 ± 0.91
210.89 K	163.88 ± 0.91
212.09 K	164.54 ± 0.91
213.3 K	165.54 ± 0.91
214.51 K	166.21 ± 0.91
215.73 K	166.95 ± 0.91
216.93 K	167.95 ± 0.91
218.14 K	169.28 ± 0.91
219.36 K	170.2 ± 0.91
220 K	170.28 ± 0.91
220.57 K	170.86 ± 0.91
221.79 K	171.61 ± 0.91
223 K	172.77 ± 0.91
224.22 K	173.69 ± 0.91
225.43 K	174.11 ± 0.91
226.65 K	175.1 ± 0.91
227.87 K	176.35 ± 0.91
229.09 K	177.18 ± 1
230 K	177.76 ± 0.91
230.31 K	178.01 ± 1
231.54 K	179.09 ± 1
232.76 K	179.76 ± 1
233.98 K	180.59 ± 1
235.21 K	181.67 ± 1
236.43 K	182.75 ± 1
237.66 K	183.67 ± 1
238.88 K	184.5 ± 1
240 K	185.25 ± 0.91
240.11 K	185.41 ± 1
241.34 K	186.24 ± 1
242.57 K	187.33 ± 1
243.8 K	188.07 ± 1
245.03 K	188.74 ± 1
246.26 K	190.07 ± 1
247.5 K	190.82 ± 1
248.75 K	191.98 ± 1
249.99 K	192.56 ± 1
250 K	192.81 ± 1.1
251.23 K	193.73 ± 1
252.46 K	194.81 ± 1.1
253.7 K	195.72 ± 1.1
254.94 K	196.72 ± 1.1
256.18 K	197.63 ± 1.1
257.43 K	198.47 ± 1.1
258.67 K	199.3 ± 1.1
259.92 K	200.3 ± 1.1
260 K	200.38 ± 1.1
261.16 K	201.13 ± 1.1
262.41 K	202.04 ± 1.1
263.66 K	203.04 ± 1.1
264.91 K	204.12 ± 1.1
266.17 K	204.87 ± 1.1
267.42 K	206.03 ± 1.1
268.69 K	207.2 ± 1.1
269.95 K	208.19 ± 1.1
270 K	208.03 ± 1.1
271.21 K	208.86 ± 1.1
272.47 K	210.02 ± 1.1
273.73 K	210.77 ± 1.1
274.99 K	211.6 ± 1.2
276.25 K	212.93 ± 1.2
277.51 K	213.85 ± 1.2
278.78 K	214.51 ± 1.2
280 K	215.76 ± 1.1
280.05 K	215.84 ± 1.2
281.32 K	216.76 ± 1.2
282.59 K	217.42 ± 1.2
283.86 K	218.5 ± 1.2
285.13 K	219.83 ± 1.2
286.41 K	220.17 ± 1.2
287.69 K	221.58 ± 1.2
288.96 K	222.74 ± 1.2
290 K	223.83 ± 1.2
290.24 K	223.49 ± 1.2
291.52 K	224.57 ± 1.2
292.8 K	225.16 ± 1.2
294.08 K	226.4 ± 1.2
295.36 K	227.48 ± 1.2
296.65 K	227.73 ± 1.2
297.93 K	228.9 ± 1.2
298.15 K	228.98 ± 1.2
299.23 K	229.65 ± 1.2
300 K	230.31 ± 1.2
300.76 K	230.56 ± 1.2
302.42 K	231.39 ± 1.2
304.07 K	232.81 ± 1.2
305.72 K	234.22 ± 1.2
307.35 K	235.3 ± 1.2
308.99 K	236.3 ± 1.2
310 K	237.05 ± 1.2
310.61 K	237.38 ± 1.2
312.22 K	239.21 ± 1.2
313.83 K	240.04 ± 1.2
315.43 K	240.54 ± 1.2
317.02 K	241.62 ± 1.2
318.6 K	242.87 ± 1.2
320 K	243.61 ± 1.3
320.17 K	243.78 ± 1.2
321.71 K	244.28 ± 1.2
323.27 K	246.27 ± 1.3
324.81 K	246.94 ± 1.3
326.3 K	247.85 ± 1.3
327.82 K	248.94 ± 1.3
329.34 K	250.02 ± 1.3
330 K	250.52 ± 1.3
330.82 K	251.18 ± 1.3
332.31 K	252.43 ± 1.3
333.79 K	253.51 ± 1.3
335.26 K	254.09 ± 1.3
336.72 K	255.17 ± 1.3
338.17 K	256.67 ± 1.3
339.59 K	256.42 ± 1.3
340 K	258 ± 1.3
341.01 K	258.66 ± 1.3
342.42 K	259.91 ± 1.3
343.82 K	260.91 ± 1.3
345.21 K	262.16 ± 1.4
346.6 K	263.24 ± 1.4
347.91 K	263.9 ± 1.4
349.09 K	265.81 ± 1.4
350 K	265.98 ± 1.3
350.43 K	266.89 ± 1.4
351.76 K	268.06 ± 1.4
353.08 K	269.06 ± 1.4
354.39 K	269.47 ± 1.4
355.67 K	270.14 ± 1.4
356.94 K	271.3 ± 1.4
358.2 K	272.71 ± 1.4
359.46 K	273.55 ± 1.4
360 K	273.71 ± 1.5
360.69 K	274.04 ± 1.4
361.93 K	275.13 ± 1.4
363.07 K	275.87 ± 1.4
364.26 K	276.54 ± 1.4
365.45 K	277.29 ± 1.4
366.62 K	277.95 ± 1.4
367.71 K	277.87 ± 1.4
368.55 K	278.87 ± 1.4
369.68 K	279.87 ± 1.5
370 K	279.62 ± 1.5
370.81 K	278.62 ± 1.4
371.9 K	280.61 ± 1.5
372.99 K	281.53 ± 1.5
